Source: the NIST ThermoML archive (doi:10.1016/j.tca.2012.04.032)
± gives the expanded uncertainty stated by the source.

Legend:
[1] = Crystal; DTA
[2] = Molar enthalpy of transition or fusion; details: Crystal; DSC

Row | SMILES | Triple point temperature [1] [K] | Molar enthalpy of transition or fusion [2] [kcal/mol]
1 | c1ccc(-c2nc(-c3ccccc3)c(-c3ccccc3)[nH]2)cc1 [2,4,5-triphenyl-1H-imidazole] | 550.95 ± 0.7 | 8.92 ± 0.194
2 | c1ccc(-c2ncc[nH]2)cc1 [2-phenyl-1H-imidazole] | 419.95 ± 0.7 | 4.26 ± 0.108
3 | c1ccc(-c2nc[nH]c2-c2ccccc2)cc1 [4,5-diphenylimidazole] | 504.95 ± 0.7 | 7.73 ± 0.17
4 | c1ccc2cc3ccccc3cc2c1 [anthracene] | 487.75 ± 0.7 | 6.1 ± 0.136
